This is an account of results in patent EP4652843A1, “BIOPESTICIDE COMPOSITION, PROCEDURE OF OBTAIN THEREOF, AND METHOD FOR CONTROLLING AND TREATING BROAD SPECTRUM OF PESTS IN PLANTS” (Kimitec Biogroup S.L, priority 2024, dated 2025).

Data set [1] deals with lepidoptera adults (Cydia pomonella). In words: Contact mortality (Leaf Disc Method), Cydia pomonella adults. The note with it: dose 1.5 g/L; 24H after application; Abbott's corrected. In kind it is in vivo. Here is the method:
(§1) All trials were carried out on whole alive target.
(§2) Mortality percentage was calculated in treatment and control groups.

The subject of data set [2] is lepidoptera adults (Grapholita molesta). In words: Contact mortality (Leaf Disc Method), Grapholita molesta adults. In kind it is in vivo. The note with it: dose 1.5 g/L; 24H after application; Abbott's corrected. Here is the method: as §1, §2
Data set [3] concerns lepidoptera larvae (Grapholita molesta). In words: Contact mortality (Leaf Disc Method), Grapholita molesta larvae. In kind it is in vivo. The note with it: dose 1.5 g/L; 24H after application; Abbott's corrected; mean of 4 repetitions. How it is done:
as §1, §2

Data set [4] shares this test system. The data set is described as follows: Antifeedant effects: settling inhibition, Grapholita molesta larvae. It is filed as in vivo. The following applies: dose 1.5 g/L; 24H after application. Here is the method:
The concept of antifeedant as a substance that acts on insect behaviour involves feeding reduction (FR) and settling inhibition (SI). In some cases, settling inhibition is considered as indirect repellent effect. […] Feeding reduction index (%FR) or settling inhibition index (%SI) was calculated according to the following formula: % FR or SI = (1−((T)/(C)))∗100 [formula] where: T= Settling of treated plants; C= Setting of control plants. Table 3. In vitro efficacy against lepidoptera larvae (Grapholita molesta)

In data set [5] the test system is lepidoptera larvae (Tuta absoluta). In words: Contact mortality (Leaf Disc Method), Tuta absoluta larvae. The following applies: dose 0.5 kg/ha; 24H after application; Abbott's corrected; mean of 3 repetitions. In kind it is in vivo. How it is done: as §1, §2
Data set [6] has the same test system. In words: Antifeedant effects: feeding reduction (choice assays), Tuta absoluta larvae. It is filed as in vivo. The note with it: dose 0.5 kg/ha, surface covered by mines, 24H after application.
Data set [7] has as its system Tuta absoluta. In words: Field trial against Tuta absoluta in Solanum lycopersicum. In kind it is in vivo. The note with it: 1,5 gr/L, % efficacy (Henderson & Tilton) on damaged leaflets, one value per plot (1-3). Here is the method:
The biopesticide composition was tested in field trials against Tuta absoluta in Solanum lycopersicum to validate efficacy, parametrised by % efficacy (Henderson & Tilton) on damaged leaflets (50 random leaflets/Plot). 3 plots were treated, each plot has 10m^2. The plants were treated with biopesticide composition and positive control; commercial products based on emamectin for recommend doses in the label in 3 applications at interval of 7 days. Table 11. % Efficacy against Tuta absoluta in field trials

Data set [8] deals with Tuta absoluta. The data set is described as follows: Contact mortality (Leaf Disc Method), solvent comparison, Tuta absoluta. The following applies: Group A: individual solvents, diluted at 0.3% (3cc/L) in water without formulation, Abbott's corrected. Here is the method: (§3) The objective of this bioassay is to evaluate the effect of test items on the mortality of insect (Fam Tortricidae and Fam Gelechiidae) and other side pests as target in a short/medium-term (0-24 hours) by topical application. All trials were carried out on whole alive target. Four independent replicates of the whole setup were performed for each target as follow: (Figure 12) first of all, 10g/L agar-agar was prepared (1) and deposited in petri dish according to the target (2), after adding cut leaf disc around 4 cm diameter from healthy bean plants (3), fixing the plant material on the semi solid agar in the petri dish (4). Insect adults (from 3 to 15 according to the target) are setting on surface of leaf disc (5). Biopesticide composition was sprayed 0.1-02 ml per experimental unit (6), a total of 10 replicates for each treatment (biopesticide composition and positive control; commercial products based on anthranilic diamide and emamectin to recommend doses in the label) were used in each experiment and incubated and evaluated after 24 hours (7).
(§4) Insects and mites were considered dead if no movement was apparent after probing with the tip of a fine brush under stereoscopic magnifying glass. Mortality percentage was calculated in treatment and control groups. If the mortality in negative control is above 20% the test was discarded.
(§5) Means of %M were compared using a one-way analysis of variance (ANOVA, p<0.05) and LSD-test as a post hoc test to verify significant differences between single treatments using Statgraphics Centurion XVII software. When nonnormality in the data was detected, an additional Kruskal-Wallis test was conducted, and Box-and-Whisker Plot (Median Notch) was presented.
(§6) The different compositions were tested by trials that were carried out on different relevant insect pests and acari including: Tuta absoluta, Bemisia tabaci, Myzus persicae, Frankliniella occidentalis and Tetranychus urticae. The bioassay type used was contact mortality (Leaf Disc Method) described in the example 4.
(§7) The main treatments included in the comparison of efficacy are: Group A: Individual solvents: Benzyl alcohol, ethanol, isopropanol, and water were applied directly (purity as in the label) diluted at 0.3% (3cc/L) in water without formulation. Group B: Vegetable matrix extracts were extracted with different solvents such as benzyl alcohol, ethanol, isopropanol, and water in a blend of inert ingredients as follows: […]

Data set [9] relates to Frankliniella occidentalis. The data set is described as follows: Contact mortality (Leaf Disc Method), solvent comparison, Frankliniella occidentalis. The following applies: Group A: individual solvents, diluted at 0.3% (3cc/L) in water without formulation, Abbott's corrected. How it is done:
as §3, §4, §5, §6, §7

Data set [10] relates to Bemisia tabaci. In words: Contact mortality (Leaf Disc Method), solvent comparison, Bemisia tabaci. The note with it: Group A: individual solvents, diluted at 0.3% (3cc/L) in water without formulation, Abbott's corrected. Here is the method: as §3, §4, §5, §6, §7
For data set [11] the following is noted: cited from earlier work.
Data set [12] has as its system Tetranychus urticae. The data set is described as follows: Contact mortality (Leaf Disc Method), solvent comparison, Tetranychus urticae. The note with it: Group A: individual solvents, diluted at 0.3% (3cc/L) in water without formulation, Abbott's corrected. Here is the method: as §3, §4, §5, §6, §7
For data set [13], the system named is Myzus persicae. The data set is described as follows: Contact mortality (Leaf Disc Method), solvent comparison, Myzus persicae. The note with it: Group A: individual solvents, diluted at 0.3% (3cc/L) in water without formulation, Abbott's corrected. Here is the method: as §3, §4, §5, §6, §7
For data set [14], the system named is Cydia pomonella. In words: Field trial against Cydia pomonella in Pyrus communis and Malus domestica. It is filed as in vivo. The note with it: 0,2cc/L, one value per plot (1-3). Here is the method:
(§8) The biopesticide composition (table 2) was tested in field trials against Grapholita molesta in Prunus persica […] to validate efficacy, parametrised by % efficacy (abbott) on fruit damage incidence. 3 plots were treated, each plot has 4-6 trees with a sample size of 100-300 fruits/ plot. The trees were treated with biopesticide composition and positive control; commercial products based on chlorantraniliprole for recommend doses in the label in 2 applications at interval of 10 days. Table 9. % Efficacy against Grapholita molesta in field trials.
The same test was repeated in Pyrus communis and Malus domestica to validate efficacy against Cydia pomonella. Table 10. % Efficacy against Cydia pomonella in field trials

Data set [15] concerns Grapholita molesta. In words: Field trial against Grapholita molesta in Prunus persica. In kind it is in vivo. The note with it: 0,2cc/L, % efficacy (abbott) on fruit damage incidence, one value per plot (1-3). How it is done: as §8

Where “and” joins values, the source holds several entries; their conditions need not be identical. Equal values may be shown once. Marks after values point to notes of the source that are not given here.

With Emamectin, the “Contact mortality (%M)” value is 94.5 ± 1.9 ^(a) % in data set [1], 88.9 ± 2.0 ^(a) % in data set [2] and 100.0 ± 0.0 ^(a) % in data set [3]. Further, in [4], the “Settling inhibition (%SI)” value stood at 36.0 ± 5.8%. Besides, the “Contact mortality in-leaf (%M)” value in data set [5] is given as 80.3 ± 8.7 ^(a) %. Besides, the “Contact mortality out-leaf (%M)” value in data set [5] is given as 65.3 ± 3.8 ^(ab) %. The “Feeding reduction (%FR)” value in data set [6] was 59.1 ± 0.8 %. The “% Efficacy against Tuta absoluta in field trials” value in data set [7] (7 days after 1st application) was 62% and 43% and 71%; in data set [7] (7 days after 2nd application), 53% and 58%; in data set [7] (7 days after 3rd application), 67% and 61% and 55%.
`OCc1ccccc1` [Benzyl alcohol (BnOH), Benzyl alcohol]: in [8], the “Contact mortality (%M) Tuta absoluta” value is 29.6 ± 5.7 ^a %. The “Contact mortality (%M) Frankliniella occidentalis” value in data set [9] is recorded as 12.5 ± 7.8 ^a %. The “Contact mortality (%M) Bemisia tabaci” value in data set [10] is given as 49.8 ± 6.2 ^a %. Also, the solubility in water in data set [11] is 4 g/100 mL. The “Contact mortality (%M) Tetranychus urticae” value in data set [12] is reported as 33.4 ± 4.1 ^a %. Further, in [13], the “Contact mortality (%M) Myzus persicae” value is reported as 19.8 ± 6.2 ^a %.
For `CC(C)O` [Isopropanol (IPN), Isopropanol], in data set [8], the “Contact mortality (%M) Tuta absoluta” value is given as 11.4 ± 7.2 ^b %. The “Contact mortality (%M) Frankliniella occidentalis” value in [9] is 0.0 ± 0.0 ^b %. Also, in data set [10], the “Contact mortality (%M) Bemisia tabaci” value was 0.0 ± 0.0 ^c %. Besides, the “Contact mortality (%M) Tetranychus urticae” value in data set [12] is on record as 0.0 ± 0.0 ^b %. Moreover, the “Contact mortality (%M) Myzus persicae” value in [13] is on record as 0.0 ± 0.0 ^b %.
As to `CCO` [Ethanol (EtOH), Ethanol], the “Contact mortality (%M) Tuta absoluta” value in data set [8] is listed as 0.0 ± 0.0 ^c %. In addition, the “Contact mortality (%M) Frankliniella occidentalis” value in data set [9] was 0.0 ± 0.0 ^b %. Further, in data set [10], the “Contact mortality (%M) Bemisia tabaci” value is given as 23.5 ± 8.4 ^b %. Moreover, the “Contact mortality (%M) Tetranychus urticae” value in data set [12] is reported as 0.0 ± 0.0 ^b %. The “Contact mortality (%M) Myzus persicae” value in data set [13] is on record as 16.7 ± 9.1 ^a %.
For `O` [Water], the “Contact mortality (%M) Tuta absoluta” value in [8] (1440 min) is given as 0.0 ± 0.0 ^c %. Moreover, the “Contact mortality (%M) Frankliniella occidentalis” value in data set [9] (1440 min) was 0.0 ± 0.0 ^b %. Also, in data set [10] (1440 min), the “Contact mortality (%M) Bemisia tabaci” value is reported as 0.0 ± 0.0 ^c %. In [12] (1440 min), the “Contact mortality (%M) Tetranychus urticae” value is recorded as 0.0 ± 0.0 ^b %. Besides, the “Contact mortality (%M) Myzus persicae” value in data set [13] (1440 min) was 0.0 ± 0.0 ^b %.
For the compound `CNC(=O)c1cc(Cl)cc(C)c1NC(=O)c1cc(Br)nn1-c1ncccc1Cl` [Chlorantraniliprole], the “% Efficacy against Cydia pomonella in field trials” value is 59% and 62% and 75% in data set [14] (10 days after the last application); 68% and 62% and 73% in data set [14] (20 days after the last application). In addition, the “% Efficacy against Grapholita molesta in field trials” value was 58% and 63% and 42% in data set [15] (14 days after the last application); 62% and 51% and 61% in data set [15] (21 days after the last application).
